Experimental data published in patent US20070082910A1, “Specific nad(p)h oxidase inhibitor” (Mitsubishi Pharma Corporation, priority 2003, published 2007).
Marks after values point to notes of the source that are not given here.

Columns and labels:
Format in all cases: in vivo
[1] = test system: NAD(P)H oxidase in diabetic rat aorta; assay: NAD(P)H oxidase activity (superoxide anion production, lucigenin chemiluminescence) in aorta of streptozotocin diabetic rats after oral administration; settings: for inhibitory rate (%), NAD(P)H oxidase in diabetic rat aorta: once a day for 3 days
Experimental: Streptozotocin (40 mg/kg) dissolved in 0.05 M citric acid buffer (pH 4.5) was administered into the tail vein of male Wistar rats (Japan SLC) to prepare diabetic rats. At 1 week to 8 weeks from the intravenous injection of streptozotocin, blood was drawn from the tail vein using a capillary treated with heparin, which was immediately cooled with ice and centrifuged at 3000 rpm, 15 min, 4° C. to give serum. The blood glucose level was measured by enzyme assay using a glucose measurement kit “GLU neo sinotest” (sinotest) and a microplate reader (SPECTRA MAX250, Molecular Devices).
The NAD(P)H oxidase activity was measured by the following method, which was modified by the method of the David. G. Harrison et al. (J. Clin. Invest. 91, 2546-2551, 1993), at 4 days from the start of the test, with superoxide anion production in aorta as an index.
To be specific, normal rat or diabetic rat free of the above-mentioned treatment was exsanguinated from the abdominal aorta, their thoracic aorta was removed. The removed thoracic aorta was immersed in Krebs-Hepes buffer and marginal tissues were removed to prepare an about 5 mm ring specimen. This ring specimen was preincubate in Krebs-Hepes buffer at 37° C. for 10 min and transferred to Krebs-Hepes buffer containing 0.25 mM lucigenin (SIGMA). 500 μM NADH (SIGMA) was added and chemiluminescence value (chemiluminescence: unit RLU: relative light units) was measured using a luminometer (MULTI-BIOLUMAT LB9505C, Warrack.Berthold) at 37° C. for 10 min. The total value of chemiluminescence was calculated from the area under the curve (hereinafter to be referred to as “AUC”) drawn by plotting the chemiluminescence value (vertical axis) relative to the measurement time (horizontal axis). The measured total value of chemiluminescence was divided by the wet weight of the vascular ring specimen and standardized to the superoxide anion production per aorta unit weight.
The inhibitory rate (%) was calculated from the following formula: inhibitory rate (%)=100−[(A−C)/(B−C)]×100
wherein A was the standardized value of chemiluminescence of diabetic rat administered with the test compound, B was the standardized value of chemiluminescence of diabetic rat without administration of the test compound, and C was the standardized value of chemiluminescence of normal rat without administration of the test compound.

[2] = test system: NAD(P)H oxidase in normal rat aorta; assay: Effect on normal rat NAD(P)H oxidase (superoxide anion production in aorta after administration); settings: 10 mg/kg for 3 days
Experimental: The test compound (10 mg/kg) was administered to normal male Wistar rats (Japan SLC) for 3 days, and the production amount of superoxide anion in the aorta was measured in the same manner as in Experimental Example 2.
The inhibitory rate (%) was calculated by the following formula: inhibitory rate (%)=100−(A/B)×100 wherein A is the standardized chemiluminescence value of the rats administered with the test compound, and B is the standardized chemiluminescence value of the rats without administration of the test compound (control group).

[3] = test system: atherosclerosis rabbit model; assay: Atherosclerosis inhibitory effect in cholesterol-fed rabbits; settings: for lipid-deposition area (%), abdominal aorta / lipid-deposition area (%), thoracic aorta: 12 weeks, 0.67% cholesterol feed; for lipid-deposition area (%), abdominal aorta / lipid-deposition area (%), thoracic aorta / Plasma lipid concentration TC: mean ± standard error; for Plasma lipid concentration TC: 12 weeks from cholesterol-loading
Experimental: A 0.67% cholesterol-containing feed (40 g/kg/day) and compound A were given to male NZW rabbits (Japan SLC) for 12 weeks. Blood was drawn from the auricular vein using a heparinized capillary tube, and centrifuged at 3000 rpm for 10 min. The total cholesterol (hereinafter to be indicated as “TC”) value of the obtained plasma was measured by an enzyme assay using a measurement kit.
After 12 weeks, the carotid artery was peeled and removed with pentobarbital anesthesia, and exsanguinated to remove the aorta. The obtained carotid artery was immediately placed in Krebs buffer, the surrounding tissues were carefully removed, and the ring specimen was prepared trying not to damage endothelial cells. Then, the ring specimen was suspended in a Magnus tank filled with Krebs buffer at 37° C. under an air flow of 95% O2-5% CO2 mixed gas. The experiment was conducted after reaching a steady state by loading 2 g tension.
For the measurement of a relaxation response, the specimen was contracted in advance with norepinephrine, and when the contraction reached steady state, acetylcholine was cumulatively added. The vascular relaxation rate was determined based on the contraction induced by 10 μM norepinephrine as 100%.
Using a transducer (NIHON KOHDEN), tension was measured isometrically. The significant difference was tested for by variance analysis with two-way layout (Dunnett's method) relative to the control group.
The removed aorta was divided into arch aorta, thoracic aorta and abdominal aorta, fixed with 10% formalin buffer, photographed, the area of the lipid adhered to the aorta was measured and the proportion of the area of the lipid-deposition area relative to the area of aorta was determined.

[4] = test system: rat acute myocardial infarction model; assay: Rat left coronary artery-ligated myocardial infarction model
Description: Male SD rats (Japan SLC) were fixed in the dorsal position with ether anesthesia, and subjected to thoracotomy by vertical incision along the left sternal line according to the method by Selye H. et al. (Angiology, 1960, 11, 398) to expose the heart. The left coronary artery was ligated using a silk thread (No. 4) at 1-2 mm from the basal part, the heart was put back in place and quickly deaerated, and the chest was closed. The rat was confirmed to have myocardial infarction with an electrocardiograph (NIHON KOHDEN). The rat was exsanguinated to death from the abdominal aorta 24 hr after ligation. The heart was removed, and a circular cross-section at the center thereof was incubated in a solution of 1% 2,3,5-triphenyltetrazolium chloride (hereinafter to be indicated as “TTC”) in 0.1 M phosphate buffer for 20 min under light shielding. Thereafter, the section was fixed with formalin buffer, traced, and the areas of infarction region (TTC unstained region) and left ventricle were calculated. Immediately after coronary artery ligation, compound A was suspended in 1% CMC solution and orally administered to the rat.
The inhibitory rate was calculated by the following formula: [formula] [formula]
In addition, compound A (1 mg/kg) was orally administered at 15 min, 1 hr and 3 hr after ligation, and infarction inhibitory effect was examined.

[5] = 0.1 mg/kg oral immediately after coronary artery ligation, 24 hr
[6] = 0.3 mg/kg oral immediately after coronary artery ligation, 24 hr
[7] = 1 mg/kg oral immediately after coronary artery ligation, 24 hr
[8] = 1 mg/kg oral, 15 min after ligation
[9] = 1 mg/kg oral, 1 hr after ligation
[10] = 1 mg/kg oral, 3 hr after ligation

## C[C@@H](Nc1nnc(-c2ccccc2)c2ccccc12)C1CCCCC1.O=C(O)/C=C\C(=O)O [compound A]
[1]; 1 mg/kg oral
  inhibitory rate (%), NAD(P)H oxidase in diabetic rat aorta: 76.9%
[1]; 10 mg/kg oral
  inhibitory rate (%), NAD(P)H oxidase in diabetic rat aorta: 105.8%
[1]; 10 mg/kg orally once a day for 3 days
  inhibitory rate (%), NAD(P)H oxidase activity in diabetic rat aorta (Table 2): 105.8%
[1]; diabetic rat aorta, 10 mg/kg orally once a day for 3 days, mean ± standard error
  chemiluminescence (×10^5 RLU/wet weight of aorta): 3.8 ± 0.6 ×10^5 RLU/wet weight of aorta
[2]
  inhibitory rate (%), NAD(P)H oxidase in normal rat aorta: 1.8%
[2]; result in words
  effect on superoxide anion production in normal rat: did not affect the superoxide anion production
[2]; normal rat aorta, mean ± standard error
  chemiluminescence (×10^5 RLU/wet weight of aorta): 3.89 ± 3.0 ×10^5 RLU/wet weight of aorta
[3]; 1 mg/kg
  lipid-deposition area (%), abdominal aorta: 25.4 ± 6.2 %
  lipid-deposition area (%), thoracic aorta: 62.1 ± 10.0 %
  Plasma lipid concentration TC: 1895.3 ± 244.6 mg/dL
[3]; 10 mg/kg
  lipid-deposition area (%), abdominal aorta: 18.2 ± 2.2 %
  lipid-deposition area (%), thoracic aorta: 56.5 ± 10.5 %
  Plasma lipid concentration TC: 1887.9 ± 103.9 mg/dL
[3]; Ach 10^−8 to 10^−5 M, FIG. 1, result in words
  endothelial-dependent relaxation response of carotid artery by Ach: significantly improved as compared to the control group
[4]; [5]
  infarction rate (%): 40%
  inhibitory rate (%) of infarction: 0%
[4]; [6]
  infarction rate (%): 17.2** %
  inhibitory rate (%) of infarction: 57** %
[4]; [7]
  infarction rate (%): 6.3** %
  inhibitory rate (%) of infarction: 84.3** %
[4]; [8]
  infarction rate (%): 10.5** %
  inhibitory rate (%) of infarction: 73.8%
[4]; [9]
  infarction rate (%): 16.7** %
  inhibitory rate (%) of infarction: 58.3%
[4]; [10]
  infarction rate (%): 29.3* %
  inhibitory rate (%) of infarction: 26.8%
